Where a name gives a salt, the structure may show the parent alone.
What was measured:
in vitro = in vitro ADME; conditions: human, Caco-2
From the text: (§1) See, e.g., Hilgers, A. R. et al., Pharm. Res., 20(8), 1149-55 (August 2003).

Caco-2 cells = assay: in vitro; assay type: in vitro ADME; conditions: human
From the text: as §1

Structure (SMILES)	melting point	Papp A→B (in vitro)	Caco2 transport compared with 79 (Caco-2 cells)
CN[C@H](C(=O)OC[C@H]1O[C@@H](n2c(=O)sc3c(O)nc(N)nc32)[C@H](O)[C@@H]1O)C(C)C (as salt: hydrochloride) [Compound 11, 5-Amino-3-(5′-O-[α-L-N-methylvalinyl]-β-D-ribofuranosyl)thiazolo[4,5-d]pyrimidine-2,7-dione Hydrochloride]	> 180 °C (dec.)		
Nc1ncc2sc(=O)n([C@@H]3O[C@H](CO)[C@@H](O)[C@H]3O)c2n1 [Compound 79, 5-Amino-3-β-D-ribofuranosyl-3H-thiazolo-[4,5-d]pyrimidin-2-one]	220 °C (dec.)	10 ×10⁻⁶ cm/s	
CC(=O)OC[C@H]1O[C@@H](n2c(=O)sc3cnc(N)nc32)[C@H](OC(C)=O)[C@@H]1OC(C)=O [Compound 78, 5-Amino-3-(2′,3′,5′-tri-O-acetyl-β-D-ribofuranosyl)-3H-thiazolo[4,5-d]pyrimidin-2-one]	121 to 123 °C	60 ×10⁻⁶ cm/s	significantly improved transport over 79
CC(=O)O[C@@H]1[C@H](OC(C)=O)[C@@H](CO)O[C@H]1n1c(=O)sc2cnc(N)nc21 [Compound 89, 5-Amino-3-(2′,3′-di-O-acetyl-β-D-ribofuranosyl)-3H-thiazolo[4,5-d]pyrimidin-2-one]	109 to 111 °C	20 ×10⁻⁶ cm/s	significantly improved transport over 79
CC(C)[C@H](N)C(=O)OC[C@H]1O[C@@H](n2c(=O)sc3c(O)nc(N)nc32)[C@H](O)[C@@H]1O (as salt: hydrochloride) [Compound 3, 5-Amino-3-(5′-O-L-valinyl-β-D-ribofuranosyl)thiazolo[4,5-d]pyrimidine-2,7-dione Dihydrochloride]	166 to 168 °C (dec.)		

Further lines, results first:

melting point	Papp A→B (in vitro)	Caco2 transport compared with 79 (Caco-2 cells)	Structure (SMILES)
> 112 °C			CN(C)c1nc(N)nc2c1sc(=O)n2[C@@H]1O[C@H](CO)[C@@H](O)[C@H]1O [Compound 20, 5-Amino-7-dimethylamino-3-β-D-ribofuranosylthiazolo[4,5-d]pyrimidin-2-one]
> 108 °C			CNc1nc(N)nc2c1sc(=O)n2[C@@H]1O[C@H](CO)[C@@H](O)[C@H]1O [Compound 18]
> 155 °C (dec.)			Nc1nc(N)c2sc(=O)n([C@@H]3O[C@H](CO)[C@@H](O)[C@H]3O)c2n1 [Compound 15, 5,7-Diamino-3-β-D-ribofuranosylthiazolo[4,5-d]pyrimidin-2-one]
> 160 °C (dec.)			COc1nc(N)nc2c1sc(=O)n2[C@@H]1O[C@H](CO)[C@@H](O)[C@H]1O [Compound 14, 5-Amino-3-β-D-ribofuranosyl-7-methoxy-thiazolo[4,5-d]pyrimidin-2-one]
> 112.4 °C (dec.)			Nc1nc(N2CCCC2)c2sc(=O)n([C@@H]3O[C@H](CO)[C@@H](O)[C@H]3O)c2n1 [Compound 23, 5-Amino-7-pyrrolidino-3-β-D-ribofuranosylthiazolo[4,5-d]pyrimidin-2-one]
> 108 °C (dec.)			Nc1nc(NC2CCCC2)c2sc(=O)n([C@@H]3O[C@H](CO)[C@@H](O)[C@H]3O)c2n1 [Compound 22, 5-Amino-7-cyclopentylamino-3-β-D-ribofuranosylthiazolo[4,5-d]pyrimidin-2-one]

From patent publication US20080070852A1, “3-Beta-D-Ribofuranosylthiazolo[ 4,5-D] Pyridimine Nucleosides and Uses Thereof” (priority 2004, published 2008)
